From publication PMC6001238, “Iterative Chemical Engineering of Vancomycin Leads to Novel Vancomycin Analogs With a High in Vitro Therapeutic Index” (Frontiers in Microbiology, 2018)
≈ marks a conversion by molar mass, not a printed value. Read-outs that look alike come from different tables or passages of the source.

Tests used:
E. faecalis VSE 1 = assay: MIC, broth microdilution, vancomycin-sensitive E. faecalis (VSE 1); format: cell-based, Enterococcus faecalis
Method in brief: (§1)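 Susceptibility was scored by broth microdilution (CLSI). In one instance each vancomycin analog or control antibiotic was tested in the presence of vancomycin, 10 μM final, and ultrapure water plus non-inoculated broth were included as controls.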

E. faecalis VRE 6 = assay: MIC, broth microdilution, vancomycin-resistant E. faecalis VRE 6 (VanA); format: cell-based, Enterococcus faecalis
Method in brief: as §1

E. faecalis VRE 53 = assay: MIC, broth microdilution, vancomycin-resistant E. faecalis VRE 53 (VanA); format: cell-based, Enterococcus faecalis
Method in brief: as §1

E. faecalis VRE 29 = assay: MIC, broth microdilution, vancomycin-resistant E. faecalis VRE 29 (VanA); format: cell-based, Enterococcus faecalis
Method in brief: as §1

E. faecalis VRE 37 = assay: MIC, broth microdilution, vancomycin-resistant E. faecalis VRE 37 (VanA); format: cell-based, Enterococcus faecalis
Method in brief: as §1

[1] = system: Murine leukemia (L1210) cells; assay: Cytostatic activity, L1210 cell proliferation; format: cell-based; conditions: mean ± SD of three experiments; highest concentration tested 250 µM; 2 days; read-out: Toxicity (IC50) L1210
Method in brief: (§2)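 Readout: Coulter cell number after drug exposure at 37°C. Durations differ by line (L1210 2 days; CEM 3 days; HeLa 4 days). Stock suspension 300,000–500,000 cells/mL, diluted by mixing with compound. Endpoint: IC50 vs negative control.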

[2] = system: human T-lymphocyte (CEM) cells; assay: Cytostatic activity, CEM cell proliferation; format: cell-based; conditions: mean ± SD of three experiments; highest concentration tested 250 µM; 3 days; read-out: Toxicity (IC50) CEM
Method in brief: as §2

[3] = system: human cervix carcinoma (HeLa) cells; assay: Cytostatic activity, HeLa cell proliferation; format: cell-based; conditions: mean ± SD of three experiments; highest concentration tested 250 µM; 4 days; read-out: Toxicity (IC50) HeLa
Method in brief: as §2

[4] = system: L1210, CEM and HeLa cell lines; assay: Cytostatic activity, average or summary over L1210, CEM and HeLa; format: cell-based
Method in brief: as §2

[5] = system: S. aureus VSSA (ATCC 6538); assay: MIC, broth microdilution, vancomycin-sensitive S. aureus (VSSA/MSSA, ATCC 6538); format: cell-based, Staphylococcus aureus
Method in brief: as §1

S. aureus VISA/HIP5827 = assay: MIC, broth microdilution, vancomycin-intermediate S. aureus VISA HIP5827; format: cell-based, Staphylococcus aureus
Method in brief: as §1

S. aureus VRSA = assay: MIC, broth microdilution, vancomycin-resistant S. aureus (VRSA); format: cell-based, Staphylococcus aureus
Method in brief: as §1

MRSA KS2 = assay: MIC, broth microdilution, MRSA KS2; format: cell-based, Staphylococcus aureus
Method in brief: as §1

MRSA KS6 = assay: MIC, broth microdilution, MRSA KS6; format: cell-based, Staphylococcus aureus
Method in brief: as §1

MRSA KS89 = assay: MIC, broth microdilution, MRSA KS89; format: cell-based, Staphylococcus aureus
Method in brief: as §1

MRSA KS1 = assay: MIC, broth microdilution, MRSA KS1; format: cell-based, Staphylococcus aureus
Method in brief: as §1

33 clinical VRE isolates = assay: MIC against a set of 33 clinical VRE isolates (range, MIC50, TI); format: cell-based, Enterococcus faecalis
Method in brief: as §1

[6] = system: 24 clinical MRSA isolates; assay: MIC against a set of 24 clinical MRSA isolates (range, MIC50, TI); format: cell-based, Staphylococcus aureus
Method in brief: as §1

[7] = system: Clostridium difficile ATJ ribotype 014/20; assay: MIC, plate drop assay, C. difficile ATJ ribotype 014/20; format: cell-based; conditions: C. difficile ATJ ribotype 014/20
Method in brief: (§3)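 Twofold dilution series of test compounds were spotted onto C. difficile lawns in 0.4% BHI agar containing added calcium and magnesium salts. After overnight anaerobic incubation at 37°C, growth inhibition was scored by spot clearing; triplicate runs, ultrapure water negative control.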

[8] = system: Clostridium difficile AIU ribotype 027; assay: MIC, plate drop assay, C. difficile AIU ribotype 027; format: cell-based; conditions: for MIC-fold improvement vs. vancomycin: C. difficile AIU ribotype 027
Method in brief: as §3

VE 148 (VanB) = assay: MIC, VanB-type VRE strain VE 148; format: cell-based, Enterococcus; conditions: VE 148, VanB; read-out: MIC
Method in brief: as §1

VE 149 (VanB) = assay: MIC, VanB-type VRE strain VE 149; format: cell-based, Enterococcus; conditions: VE 149, VanB; read-out: MIC
Method in brief: as §1

VE 150 (VanB) = assay: MIC, VanB-type VRE strain VE 150; format: cell-based, Enterococcus; conditions: VE 150, VanB; read-out: MIC
Method in brief: as §1

VE 152 (VanB) = assay: MIC, VanB-type VRE strain VE 152; format: cell-based, Enterococcus; conditions: VE 152, VanB; read-out: MIC
Method in brief: as §1

VE 157 (VanB) = assay: MIC, VanB-type VRE strain VE 157; format: cell-based, Enterococcus; conditions: VE 157, VanB; read-out: MIC
Method in brief: as §1

VE 82 (VanC1) = assay: MIC, VanC1-type VRE strain VE 82; format: cell-based, Enterococcus gallinarum; conditions: VE 82, VanC1; read-out: MIC
Method in brief: as §1

MRSA = assay: Minimum bactericidal concentration against MRSA; format: cell-based, Staphylococcus aureus
Experimental: Plates were incubated overnight at 37°C and colony growth was inspected.

## CN[C@H](CC(C)C)C(=O)N[C@H]1C(=O)N[C@@H](CC(N)=O)C(=O)N[C@H]2C(=O)N[C@H]3C(=O)N[C@H](C(=O)N[C@H](C(=O)NCC(=O)Nc4ccc5c(c4)Cc4ccccc4-5)c4cc(O)cc(O)c4-c4cc3ccc4O)[C@H](O)c3ccc(c(Cl)c3)Oc3cc2cc(c3O[C@@H]2O[C@H](CO)[C@@H](O)[C@H](O)[C@H]2O[C@H]2C[C@](C)(N)[C@H](O)[C@H](C)O2)Oc2ccc(cc2Cl)[C@H]1O [Vanc-42]
E. faecalis VSE 1; Enterococcus faecalis VSE 1 (vancomycin-sensitive), read-out: MIC
  MIC: 0.20 µM (≈ 0.334 µg/mL)
E. faecalis VSE 1; VSE 1, ratio of MIC of vancomycin and MIC of analogue
  MIC-fold improvement vs. vancomycin: 8
E. faecalis VRE 6; Enterococcus faecalis VRE 6 (vancomycin-resistant), read-out: MIC
  MIC: 0.78 µM (≈ 1.3 µg/mL)
E. faecalis VRE 6; VRE 6, ratio of MIC of vancomycin and MIC of analogue
  MIC-fold improvement vs. vancomycin: 256
E. faecalis VRE 53; Enterococcus faecalis VRE 53 (vancomycin-resistant), read-out: MIC
  MIC: 12.5 µM (≈ 20.9 µg/mL)
E. faecalis VRE 53; VRE 53, ratio of MIC of vancomycin and MIC of analogue
  MIC-fold improvement vs. vancomycin: 32
E. faecalis VRE 29; Enterococcus faecalis VRE 29 (vancomycin-resistant), read-out: MIC
  MIC: 1.56 µM (≈ 2.6 µg/mL)
E. faecalis VRE 29; VRE 29, ratio of MIC of vancomycin and MIC of analogue
  MIC-fold improvement vs. vancomycin: 256
E. faecalis VRE 37; Enterococcus faecalis VRE 37 (vancomycin-resistant), read-out: MIC
  MIC: 3.13 µM (≈ 5.23 µg/mL)
E. faecalis VRE 37; VRE 37, ratio of MIC of vancomycin and MIC of analogue
  MIC-fold improvement vs. vancomycin: 128
[1]
  IC50: 177 ± 103 µM
[2]
  IC50: 92 ± 3 µM
[3]
  IC50: > 250 µM
[4]; average IC50 used for TI in Table S5, >250 entered as 250, read-out: IC50
  IC50: 173 µM
[4]; average of L1210, CEM and HeLa, read-out: Toxicity (IC50) Average
  IC50: 173 µM
[5]; Staphylococcus aureus VSSA, read-out: MIC
  MIC: 0.78 µM (≈ 1.3 µg/mL)
[5]; VSSA, ratio of MIC of vancomycin and MIC of analogue
  MIC-fold improvement vs. vancomycin: 1
S. aureus VISA/HIP5827; Staphylococcus aureus VISA/HIP5827, read-out: MIC
  MIC: 0.78 µM (≈ 1.3 µg/mL)
S. aureus VISA/HIP5827; VISA/HIP5827, ratio of MIC of vancomycin and MIC of analogue
  MIC-fold improvement vs. vancomycin: 8
S. aureus VRSA; Staphylococcus aureus VRSA, read-out: MIC
  MIC: 1.56 µM (≈ 2.6 µg/mL)
S. aureus VRSA; VRSA, ratio of MIC of vancomycin and MIC of analogue
  MIC-fold improvement vs. vancomycin: 64
MRSA KS2; MRSA KS2, ratio of MIC of vancomycin and MIC of analogue
  MIC-fold improvement vs. vancomycin: 4
MRSA KS2; Staphylococcus aureus MRSA KS2, read-out: MIC
  MIC: 0.20 µM (≈ 0.334 µg/mL)
MRSA KS6; MRSA KS6, ratio of MIC of vancomycin and MIC of analogue
  MIC-fold improvement vs. vancomycin: 4
MRSA KS6; Staphylococcus aureus MRSA KS6, read-out: MIC
  MIC: 0.20 µM (≈ 0.334 µg/mL)
MRSA KS89; MRSA KS8, ratio of MIC of vancomycin and MIC of analogue
  MIC-fold improvement vs. vancomycin: 4
MRSA KS89; Staphylococcus aureus MRSA KS8, read-out: MIC
  MIC: 0.20 µM (≈ 0.334 µg/mL)
MRSA KS1; MRSA KS1, ratio of MIC of vancomycin and MIC of analogue
  MIC-fold improvement vs. vancomycin: 2
MRSA KS1; Staphylococcus aureus MRSA KS1, read-out: MIC
  MIC: 0.39 µM (≈ 0.651 µg/mL)
33 clinical VRE isolates; 33 clinical VRE isolates
  MIC Range: 0.39 to 6.25 µM
33 clinical VRE isolates; in vitro therapeutic index, VRE
  TI (IC50/MIC50): 111
33 clinical VRE isolates; median MIC, 33 clinical VRE isolates, read-out: MIC50
  MIC50: 1.56 µM (≈ 2.6 µg/mL)
[6]; 24 clinical MRSA isolates
  MIC Range: 0.10 to 0.39 µM
[6]; in vitro therapeutic index, MRSA
  TI (IC50/MIC50): 865
[6]; median MIC, 24 clinical MRSA isolates, read-out: MIC50
  MIC50: 0.20 µM (≈ 0.334 µg/mL)
[7]
  MIC-fold improvement vs. vancomycin: up to 45
[7]; listed as Vanc- 42
  MIC-fold improvement vs. vancomycin: 22
[8]
  MIC-fold improvement vs. vancomycin: ≤ 58
[8]; C. difficile AIU ribotype 027, plate drop assay
  MIC: 0.78 µM (≈ 1.3 µg/mL)
[8]; listed as Vanc- 42
  MIC-fold improvement vs. vancomycin: 58
VE 148 (VanB)
  MIC: 3.13 µM (≈ 5.23 µg/mL)
VE 149 (VanB)
  MIC: 3.13 µM (≈ 5.23 µg/mL)
VE 150 (VanB)
  MIC: 3.13 µM (≈ 5.23 µg/mL)
VE 152 (VanB)
  MIC: 3.13 µM (≈ 5.23 µg/mL)
VE 157 (VanB)
  MIC: 3.13 µM (≈ 5.23 µg/mL)
VE 82 (VanC1)
  MIC: 1.56 µM (≈ 2.6 µg/mL)
MRSA
  MBC relative to MIC: MBC equaling their MIC values
